# Data published in ChEMBL document CHEMBL2385071, “Synthesis and biological investigation of coumarin piperazine (piperidine) derivatives as potential multireceptor atypical antipsychotics” (J Med Chem, 2013).
# What was measured:
# Rattus norvegicus [1] = assay: Antipsychotic activity in po dosed rat assessed as reduction in conditioned avoidance response after 60 mins; format: functional; settings: 1 h
# Rattus norvegicus [2] = assay: Toxicity in rat assessed as QT interval prolongation at 30 mg/kg, po by electrophysiology assay; format: organism-based; parameters: dose 30 mg/kg, route oral; settings: in vivo
# Mus musculus [3] = species on record: Mus musculus; assay: animal or person; settings: po
# Mus musculus [4] = assay: Toxicity in mouse assessed as weight gain at 0.06 to […], po for 28 days; format: organism-based; parameters: dose 0.06-0.16 mg/kg, route oral; settings: in vivo, 672 h
# Mus musculus [5] = species on record: Mus musculus; assay: animal or person; settings: po; remark: listed apart in the source
# Description: Antipsychotic activity in po dosed mouse assessed as reduction in apomorphine-induced climbing behavior administered for 30 mins prior to apomorphine-challenge measured at 10 to 30 mins post-dose
structure (smiles),measurement,setting,value
Cc1nc2n(c(=O)c1CCN1CCC(c3noc4cc(F)ccc34)CC1)CCCC2 [RISPERIDONE],ED50,Rattus norvegicus [1],0.48 mg/kg
same,Activity,Rattus norvegicus [2],Toxic
same,ED50,Mus musculus [3],0.01 mg/kg
same,Activity,Mus musculus [4],Toxic
same,ED50,Mus musculus [5],0.02 mg/kg
